Laboratory results reported in patent publication US20070213346A1, “Substituted 4-Alkyl-And 4-Alkanoyl-Piperidine Derivatives And Their Use As Neurokinin Antagonists” (priority 2004, published 2007).

Columns and labels:
Assay type in all cases: cell-based
NK2 = target: T1, NK2 (Homo sapiens, UniProt P21452); experiment: Signal transduction (ST), intracellular Ca++ FLIPR, NK2; conditions: antagonist, Ca++ transient peak, read-out: NK2 pIC50 (converted)
T1 sequence (P21452 1-398): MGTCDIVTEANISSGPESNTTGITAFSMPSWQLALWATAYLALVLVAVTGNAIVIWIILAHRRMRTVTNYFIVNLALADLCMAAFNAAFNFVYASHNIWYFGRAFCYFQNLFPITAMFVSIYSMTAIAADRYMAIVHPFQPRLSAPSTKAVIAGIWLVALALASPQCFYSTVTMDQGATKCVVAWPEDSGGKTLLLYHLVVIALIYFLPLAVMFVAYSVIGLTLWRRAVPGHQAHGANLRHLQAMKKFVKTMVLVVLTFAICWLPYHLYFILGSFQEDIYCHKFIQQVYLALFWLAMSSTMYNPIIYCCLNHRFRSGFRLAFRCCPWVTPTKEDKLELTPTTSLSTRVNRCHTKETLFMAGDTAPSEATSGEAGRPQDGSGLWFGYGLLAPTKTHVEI
Experimental: [The source words this procedure for another target and reports this target under the same test.] (§1) This test evaluates in vitro functional NK1 antagonistic activity. For the measurements of intracellular Ca^++ concentrations the cells were grown on 96-well (black wall/transparent bottom) plates from Costar for 2 days until they reached confluence. The cells were loaded with 2 μM Fluo3 in DMEM containing 0.1% BSA and 2.5 mM probenecid for 1 h at 37° C. They were washed 3× with a Krebs buffer (140 mM NaCl, 1 mM MgCl2x6H2O, 5 mM KCl, 10 mM glucose, 5 mM HEPES; 1.25 mM CaCl2; pH 7.4) containing 2.5 mM probenecid and 0.1% BSA (Ca^++-buffer). The cells were preincubated with a concentration range of antagonists for 20 min at RT and Ca^++-signals after addition of the agonists were measured in a Fluorescence Image Plate Reader (FLIPR from Molecular Devices, Crawley, England). The peak of the Ca^++-transient was considered as the relevant signal and the mean values of corresponding wells were analysed as described below.
(§2) The sigmoidal dose response curves were analysed by computerised curve-fitting, using the GraphPad program. The EC50-value of a compound is the effective dose showing 50% of maximal effect. For mean curves the response to the agonist with the highest potency was normalised to 100%. For antagonist responses the IC50-value was calculated using non-linear regression.
(§3) The last columns indicates—without being limited thereto—for which use the compounds might be most suitable. Of course, since for some neurokinin receptors no data was determined, it is obvious that these compounds might be attributed to another suitable use.

NK1 = NK1 (Homo sapiens, UniProt P25103); experiment: Signal transduction (ST), intracellular Ca++ FLIPR, NK1; conditions: antagonist, Ca++ transient peak, read-out: NK1 pIC50 (converted)
NK1, sequence (P25103 whole entry): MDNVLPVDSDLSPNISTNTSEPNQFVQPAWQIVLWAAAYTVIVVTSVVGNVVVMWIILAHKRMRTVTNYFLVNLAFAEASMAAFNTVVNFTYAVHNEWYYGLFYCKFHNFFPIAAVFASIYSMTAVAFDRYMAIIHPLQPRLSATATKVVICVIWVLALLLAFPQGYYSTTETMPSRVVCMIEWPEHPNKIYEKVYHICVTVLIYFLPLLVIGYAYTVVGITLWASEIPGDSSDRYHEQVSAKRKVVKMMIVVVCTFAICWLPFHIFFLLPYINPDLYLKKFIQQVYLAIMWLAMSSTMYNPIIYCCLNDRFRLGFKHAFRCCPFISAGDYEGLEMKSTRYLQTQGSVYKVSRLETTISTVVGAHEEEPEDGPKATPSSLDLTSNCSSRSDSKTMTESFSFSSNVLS
Experimental: as §1
as §2, with “regression. […]” for “regression.”

NK3 = target: T2, NK3 (Homo sapiens, UniProt P29371); experiment: Signal transduction (ST), intracellular Ca++ FLIPR, NK3; conditions: antagonist, Ca++ transient peak, read-out: NK3 pIC50 (converted)
T2 sequence (P29371 1-465): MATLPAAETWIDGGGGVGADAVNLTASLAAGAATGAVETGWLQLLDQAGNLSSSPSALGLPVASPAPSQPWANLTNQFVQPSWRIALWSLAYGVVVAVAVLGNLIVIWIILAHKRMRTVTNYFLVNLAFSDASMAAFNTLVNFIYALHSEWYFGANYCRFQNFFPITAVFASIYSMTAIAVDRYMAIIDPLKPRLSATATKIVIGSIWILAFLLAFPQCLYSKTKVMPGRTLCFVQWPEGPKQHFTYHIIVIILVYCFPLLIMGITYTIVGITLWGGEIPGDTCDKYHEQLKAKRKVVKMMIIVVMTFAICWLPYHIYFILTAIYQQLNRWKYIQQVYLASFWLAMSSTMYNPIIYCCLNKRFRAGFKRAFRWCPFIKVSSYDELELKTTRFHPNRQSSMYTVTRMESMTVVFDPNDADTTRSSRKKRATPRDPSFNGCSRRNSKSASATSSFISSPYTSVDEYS
Experimental: [The source words this procedure for another target and reports this target under the same test.] as §1, §2, §3

| SMILES | IC50 (NK2) | IC50 (NK1) | IC50 (NK3) |
| --- | --- | --- | --- |
| O=C(c1cc(C(F)(F)F)cc(C(F)(F)F)c1)N1CCC(CN2CCN(C3CCN(c4cnccn4)CC3)CC2)CC1Cc1ccccc1 (stereo not drawn) [Compound 19] | > 10 µM | 0.288 µM | 7.94 µM |
| Cc1nnsc1C(=O)N1CCC(N2CCN(CC3(O)CCN(C(=O)c4cc(C(F)(F)F)cc(C(F)(F)F)c4)C(Cc4ccccc4)C3)CC2)C1 (stereo not drawn) [Compound 93] | 7.76 µM | 0.0398 µM | 4.27 µM |
| Cn1c(Cl)cnc1CN1CCC(N2CCN(CC3CCN(C(=O)c4cc(C(F)(F)F)cc(C(F)(F)F)c4)C(Cc4ccccc4)C3)CC2)CC1 (stereo not drawn) [Compound 20] | > 10 µM | 0.0933 µM | > 10 µM |
| O=C(C1CC1)N1CCC(N2CCN(CC3(O)CCN(C(=O)c4cc(C(F)(F)F)cc(C(F)(F)F)c4)C(Cc4ccccc4)C3)CC2)C1 (stereo not drawn) [Compound 77] | 7.94 µM | 0.0427 µM | 2.88 µM |
| O=C(c1cc(C(F)(F)F)cc(C(F)(F)F)c1)N1CCC(O)(CN2CCN(C3CCNC3)CC2)CC1Cc1ccccc1 (stereo not drawn) [Compound 76] | > 10 µM | 0.148 µM | > 10 µM |
| O=C(c1cc(C(F)(F)F)cc(C(F)(F)F)c1)N1CCC(CN2CCN(C3CCN(c4ncccn4)CC3)CC2)CC1Cc1ccccc1 (stereo not drawn) [Compound 17] | 7.24 µM | 0.0851 µM | 5.25 µM |
| O=C(C1CCOC1)N1CCC(N2CCN(C(=O)[C@H]3CCN(C(=O)c4cc(C(F)(F)F)cc(C(F)(F)F)c4)[C@H](Cc4ccccc4)C3)CC2)CC1 (stereo partly drawn) [Compound 92] | 6.76 µM | 0.024 µM | 0.871 µM |
| O=C(C1CC1)N1CCC(N2CCN(C(=O)[C@H]3CCN(C(=O)c4cc(C(F)(F)F)cc(C(F)(F)F)c4)[C@H](Cc4ccccc4)C3)CC2)CC1 [Compound 56] | 4.68 µM | 0.0123 µM | 0.692 µM |
| O=C(c1ccccc1)N1CCC(N2CCN(CC3(O)CCN(C(=O)c4cc(C(F)(F)F)cc(C(F)(F)F)c4)C(Cc4ccccc4)C3)CC2)C1 (stereo not drawn) [Compound 79] | 9.12 µM | 0.0316 µM | 7.24 µM |
| Cc1ccc(N2CCC(N3CCN(CC4CCN(C(=O)c5cc(C(F)(F)F)cc(C(F)(F)F)c5)C(Cc5ccccc5)C4)CC3)CC2)nn1 (stereo not drawn) [Compound 18] | > 10 µM | 0.229 µM | > 10 µM |

Next, values leading:

| IC50 (NK2) | IC50 (NK1) | IC50 (NK3) | SMILES |
| --- | --- | --- | --- |
| ~3.16 µM | 0.191 µM | ~7.76 µM | O=C(C1CC1)N1CCC(N2CCN(CC3CCN(C(=O)c4cc(C(F)(F)F)cc(C(F)(F)F)c4)C(Cc4ccccc4)C3)CC2)CC1 (stereo not drawn) [Compound 15] |
| 7.24 µM | 0.1 µM | > 10 µM | O=C(c1ccsc1)N1CCC(N2CCN(C[C@H]3CCN(C(=O)c4cc(C(F)(F)F)cc(C(F)(F)F)c4)[C@H](Cc4ccccc4)C3)CC2)C1 (stereo partly drawn) [Compound 62] |
| 8.91 µM | 0.0363 µM | 2.51 µM | O=C(c1ccoc1)N1CCC(N2CCN(CC3(O)CCN(C(=O)c4cc(C(F)(F)F)cc(C(F)(F)F)c4)C(Cc4ccccc4)C3)CC2)C1 (stereo not drawn) [Compound 78] |
| 8.91 µM | 0.275 µM | 7.08 µM | O=C(c1cccs1)N1CCC(N2CCN(C[C@H]3CCN(C(=O)c4cc(C(F)(F)F)cc(C(F)(F)F)c4)[C@H](Cc4ccccc4)C3)CC2)CC1 (relative stereo) [Compound 37] |
| > 10 µM | 0.0708 µM | > 10 µM | Cc1nnsc1C(=O)N1CCC(N2CCN(C[C@H]3CCN(C(=O)c4cc(C(F)(F)F)cc(C(F)(F)F)c4)[C@H](Cc4ccccc4)C3)CC2)C1 (stereo partly drawn) [Compound 63] |
| 2.34 µM | 0.316 µM | ~9.77 µM | COc1cccc(CC(=O)N2CCC(N3CCN(CC4CCN(C(=O)c5cc(C(F)(F)F)cc(C(F)(F)F)c5)C(Cc5ccccc5)C4)CC3)CC2)c1 (stereo not drawn) [Compound 52] |
| > 10 µM | 0.182 µM | > 10 µM | O=C(c1cc(C(F)(F)F)cc(C(F)(F)F)c1)N1CCC(CN2CCN(C3CCNC3)CC2)CC1Cc1ccccc1 (stereo not drawn) [Compound 60] |
| > 10 µM | 0.105 µM | > 10 µM | O=C(c1cccnc1)N1CCC(N2CCN(C[C@H]3CCN(C(=O)c4cc(C(F)(F)F)cc(C(F)(F)F)c4)[C@H](Cc4ccccc4)C3)CC2)C1 (stereo partly drawn) [Compound 65] |
| > 10 µM | 0.0741 µM | > 10 µM | O=C(C1CC1)N1CCC(N2CCN(C[C@H]3CCN(C(=O)c4cc(C(F)(F)F)cc(C(F)(F)F)c4)[C@H](Cc4ccccc4)C3)CC2)C1 (stereo partly drawn) [Compound 61] |
| 8.13 µM | 0.0302 µM | > 10 µM | O=C(c1cccnc1)N1CCC(N2CCN(CC3(O)CCN(C(=O)c4cc(C(F)(F)F)cc(C(F)(F)F)c4)C(Cc4ccccc4)C3)CC2)C1 (stereo not drawn) [Compound 80] |
| 7.41 µM | 0.0501 µM | ~7.94 µM | O=C(c1ccoc1)N1CCC(N2CCN(CC3CCN(C(=O)c4cc(C(F)(F)F)cc(C(F)(F)F)c4)C(Cc4ccccc4)C3)CC2)C1 (stereo not drawn) [Compound 11] |
| > 10 µM | 0.117 µM | > 10 µM | O=C(c1ccccc1)N1CCC(N2CCN(C[C@H]3CCN(C(=O)c4cc(C(F)(F)F)cc(C(F)(F)F)c4)[C@H](Cc4ccccc4)C3)CC2)C1 (stereo partly drawn) [Compound 64] |
